Values quoted from earlier work, collected in patent US20060148877A1, “Pharmaceutical formulations of celcoxib” (TransForm Pharmaceuticals, Inc., priority 2002, published 2006).

Details: commercially available form (CELEBREX), neutral molecule

## Cc1ccc(-c2cc(C(F)(F)F)nn2-c2ccc(S(N)(=O)=O)cc2)cc1 [celecoxib, 4-[5-(4-methylphenyl)-3-(trifluoromethyl)-1H-pyrazol-1-yl]benzenesulfonamide]
  solubility in water: essentially insoluble in water
